The record followed here is PMC12391934, “Palladium-Catalyzed C–H Arylation of Quinoidal Scaffolds Through Homogeneous and Heterogeneous Pathways: Advancing Toward Trypanocidal Prototypes” (ACS Omega, 2025).

The IC50 is the point on the concentration scale where inhibition reaches its midpoint. The term CC50 denotes the concentration that lowers cell viability or growth by half.

What all share (assay type): cell-based
The subject of series [1] is trypomastigote forms of Trypanosoma cruzi (Y strain). The series can be described thus: Trypanocidal assay, bloodstream trypomastigotes, 5% of blood at 4 °C. Particulars: 24 h, concentration giving 50% lysis of the parasites, mean ± SD of at least three experiments. As for the experimental part: 5% of blood at 4 °C: For all the experiments, stock solutions of the compounds were prepared in dimethyl sulfoxide, with the final concentration of the solvent never exceeding 0.5%, concentration known to exert no toxicity to the parasite or host cells. Bloodstream trypomastigotes of Y strain were obtained from infected Swiss Webster mice at the peak of parasitemia by differential centrifugation process. The parasites (5 × 10^6 parasites per mL) plus 5% of blood were incubated at 4 °C for 24 h in 5% CO2 atmosphere in absence or presence of the compounds. […] At least three independent experiments were performed, and the mean and standard deviation were calculated. The standard drug Bz was used as control.

The next series in a line: in vitro.
In series [2] the test system is trypomastigote forms of Trypanosoma cruzi (Y strain). As to the kind of experiment: Trypanocidal assay, bloodstream trypomastigotes, 0% of blood at 37 °C. Particulars: 24 h, concentration giving 50% lysis of the parasites, mean ± SD of at least three experiments. As for the experimental part:
0% of blood at 37 °C: The experiments were performed with the Y strain of T. cruzi.^11 Stock solutions of the compounds were prepared in dimethylsulfoxide (DMSO), with the final concentration of the latter in the experiments never exceeding 0.1%. […] Bloodstream trypomastigotes were obtained from infected Albino Swiss mice at the peak of parasitemia by differential centrifugation. The parasites were resuspended to a concentration of 10 × 10^6 cells/mL in DMES medium. This suspension (100 µL) was added to the same volume of each of the compounds, which had been previously prepared at twice the desired final concentrations. The incubation was performed in 96-well microplates (Nunc Inc., Rochester, USA) at 37 °C for 24 h. Benznidazole (Lafepe, Brazil), the standard drug for treatment of chagasic patients, was used as control.

`Cc1cc(C)cc(C2=CC(=O)c3cc4ccccc4cc3C2=O)c1` [3p]: the IC50 in series [1] was greater than 250 µM.

`O=C1C=C(c2ccc(C(F)(F)F)cc2)C(=O)c2ccccc21` [3g]: the 50% cytotoxic concentration (CC50) at 24 h in “in vitro” stood at 6.8 ± 0.2 µM. In series [1], this compound came in with a half-maximal inhibitory concentration (IC50) of 30.6 ± 2.1 µM.

The compound `Cc1cc(C)cc(C2=CC(=O)c3ccccc3C2=O)c1` [3c] returned an IC50 in series [1] of 219 ± 13.4 µM.

In the case of `O=C1C=C(c2ccccc2)C(=O)c2ccccc21` [3d], the cytotoxic concentration (CC50) at 24 h in the series “in vitro” worked out at 9.4 ± 2.2 µM. Moreover, the half-maximal inhibitory concentration (IC50) came to 25.2 ± 2.8 µM in series [1] and 2.11 ± 0.1 µM in series [2].

With `Cc1ccc(C2=CC(=O)c3c(O)cccc3C2=O)cc1` [3l], the midpoint of cytotoxicity in “in vitro”, the CC50 at 24 h, lay at 4.8 ± 0.9 µM. Also, the half-inhibitory concentration (IC50) in series [1] was 14.4 ± 2.1 µM; in series [2] it was 0.31 ± 0.04 µM.

In “in vitro”, `COc1ccc(C2=CC(=O)c3ccccc3C2=O)cc1` [3e] had a half-maximal cytotoxic concentration (CC50) at 24 h of 34 ± 0.5 µM. This compound also gave an IC50 in series [1] of 47.6 ± 0.6 µM.

In “in vitro”, `Cc1cc([N+](=O)[O-])ccc1C1=CC(=O)c2ccccc2C1=O` [3i] yielded a CC50 at 24 h of 6.8 ± 0.6 µM. Moreover, in series [1], inhibition was half-maximal at 39.5 ± 4.1 µM (IC50).

In the case of `COc1cc2c(cc1OC)C(=O)C(c1ccc(C)cc1)=CC2=O` [3k], the IC50 in series [1] amounted to 83.3 ± 4.8 µM.

`COc1cccc(C2=CC(=O)c3ccccc3C2=O)c1` [3f] gave a CC50 at 24 h in the series “in vitro” of 8.3 ± 1.3 µM. The concentration for half-maximal inhibition (IC50) in series [1] was determined as 30.7 ± 2.5 µM; in series [2] it was 3.85 ± 0.01 µM.

In series [1], `Cc1ccc(C2=CC(=O)C=C(c3ccc(C)cc3)C2=O)cc1` [3v] registered an IC50 of 233 ± 12.4 µM.

In the case of `Cc1cccc(C2=CC(=O)c3ccccc3C2=O)c1` [3b], the CC50 at 24 h in “in vitro” was determined as 14.3 ± 0.5 µM. Moreover, the midpoint of inhibition in series [1], the IC50, lay at 38.4 ± 1.3 µM.

`O=C1C=C(c2ccccc2)C(=O)c2c(O)cccc21` [3n] returned a 50% cytotoxic concentration (CC50) at 24 h in “in vitro” of 6.4 ± 0.5 µM. For the same compound, the values for the IC50 in series [1] and in series [2] were 13.7 ± 1.1 µM and 0.69 ± 0.03 µM, respectively.

`COC(=O)c1ccc(C2=CC(=O)c3ccccc3C2=O)cc1` [3h] came in with a 50% cytotoxic concentration (CC50) at 24 h in the series “in vitro” of 30.6 ± 1 µM. The half-maximal inhibitory concentration (IC50) in series [1] was 45.9 ± 4.3 µM.

As for `Cc1ccc(C2=CC(=O)c3ccccc3C2=O)cc1` [3a], in “in vitro”, the midpoint of cytotoxicity, the CC50 at 24 h, lay at 24.6 ± 3.2 µM. This compound also had an IC50 in series [1] of 36.3 ± 2.9 µM.

Turning to `COc1ccc(C2=CC(=O)c3ccccc3C2=O)c([N+](=O)[O-])c1` [3j], the 50% inhibitory concentration (IC50) in series [1] worked out at 86.1 ± 7.2 µM.

As for `O=C1C(c2ccccc2)=CC(=O)c2c(O)cccc21` [3m], the CC50 at 24 h in “in vitro” was less than 3.9 µM. Moreover, the results for the 50% inhibitory concentration (IC50) in series [1] and in series [2] were 12.7 ± 0.1 µM and 0.34 ± 0.03 µM, respectively.

Turning to `O=C1C=C(c2ccccc2)C(=O)c2cc3ccccc3cc21` [3q], the IC50 in series [1] is greater than 250 µM.
